Blank lines part the entries; values can stand above or below the compound they belong to. Calls of active or inactive are those of the source.
Tests used:
[1] = molecular target: Cytochrome P450 2C19 (Homo sapiens, UniProt P33261); experiment: Cytochrome panel assay with activity outcomes. Panel member name: p450-cyp2c19 Compounds with AC50 equal or less than 10 uM are considered active; type: functional; details: read-out: AC50
[2] = molecular target: Cytochrome P450 3A4 (Homo sapiens, UniProt P08684);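 further: CYP3A4 tested as one member of a cytochrome P450 panel screen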
Sequence of Cytochrome P450 3A4 (P08684 whole entry): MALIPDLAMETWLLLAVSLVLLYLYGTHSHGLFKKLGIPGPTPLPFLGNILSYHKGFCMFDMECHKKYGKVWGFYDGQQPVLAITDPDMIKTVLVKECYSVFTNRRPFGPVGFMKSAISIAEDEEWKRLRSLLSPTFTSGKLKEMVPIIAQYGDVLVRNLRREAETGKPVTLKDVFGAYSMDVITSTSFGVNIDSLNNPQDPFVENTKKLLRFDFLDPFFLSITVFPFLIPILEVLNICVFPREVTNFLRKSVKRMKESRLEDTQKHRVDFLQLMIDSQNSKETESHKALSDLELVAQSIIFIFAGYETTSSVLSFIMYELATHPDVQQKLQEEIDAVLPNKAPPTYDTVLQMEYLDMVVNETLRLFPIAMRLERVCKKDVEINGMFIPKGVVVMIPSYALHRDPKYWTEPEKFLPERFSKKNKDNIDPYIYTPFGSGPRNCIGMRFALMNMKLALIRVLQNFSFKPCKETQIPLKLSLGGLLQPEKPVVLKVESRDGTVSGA

[3] = molecular target: Cytochrome P450 2C9 (Homo sapiens, UniProt P11712)
Sequence of Cytochrome P450 2C9 (P11712 whole entry): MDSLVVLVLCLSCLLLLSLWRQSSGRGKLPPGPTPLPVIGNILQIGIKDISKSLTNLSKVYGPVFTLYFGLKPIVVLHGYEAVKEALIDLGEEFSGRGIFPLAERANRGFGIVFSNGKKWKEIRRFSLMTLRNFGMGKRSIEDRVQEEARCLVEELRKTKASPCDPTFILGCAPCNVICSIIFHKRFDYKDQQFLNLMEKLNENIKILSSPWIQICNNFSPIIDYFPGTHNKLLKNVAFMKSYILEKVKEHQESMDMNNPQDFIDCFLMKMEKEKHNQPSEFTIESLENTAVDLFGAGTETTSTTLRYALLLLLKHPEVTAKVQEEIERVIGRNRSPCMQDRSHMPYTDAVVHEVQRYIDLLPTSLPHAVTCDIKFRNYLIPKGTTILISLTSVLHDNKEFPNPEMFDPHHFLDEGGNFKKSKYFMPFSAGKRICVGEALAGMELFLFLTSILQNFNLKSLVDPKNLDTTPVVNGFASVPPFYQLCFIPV

[4] = system: HEK293; experiment: EBV LMP1 TES2 canonical NF-kB signalling blockers – cell-based, HEK293, luciferase, cherry-pick, dose response (AID 588343); type: functional; details: Homo sapiens
[5] = molecular target: T1, Short transient receptor potential channel 4 (Mus musculus, UniProt Q9QUQ5); experiment: block of DAMGO-driven TRPC4 calcium entry – cell-based, HEK293 TRPC4/mu-opioid, Fluo-4 calcium, dose response (AID 434942); type: functional;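 further: potency of inhibitors blocking the TRPC4 calcium response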
T1 sequence (Q9QUQ5 whole entry): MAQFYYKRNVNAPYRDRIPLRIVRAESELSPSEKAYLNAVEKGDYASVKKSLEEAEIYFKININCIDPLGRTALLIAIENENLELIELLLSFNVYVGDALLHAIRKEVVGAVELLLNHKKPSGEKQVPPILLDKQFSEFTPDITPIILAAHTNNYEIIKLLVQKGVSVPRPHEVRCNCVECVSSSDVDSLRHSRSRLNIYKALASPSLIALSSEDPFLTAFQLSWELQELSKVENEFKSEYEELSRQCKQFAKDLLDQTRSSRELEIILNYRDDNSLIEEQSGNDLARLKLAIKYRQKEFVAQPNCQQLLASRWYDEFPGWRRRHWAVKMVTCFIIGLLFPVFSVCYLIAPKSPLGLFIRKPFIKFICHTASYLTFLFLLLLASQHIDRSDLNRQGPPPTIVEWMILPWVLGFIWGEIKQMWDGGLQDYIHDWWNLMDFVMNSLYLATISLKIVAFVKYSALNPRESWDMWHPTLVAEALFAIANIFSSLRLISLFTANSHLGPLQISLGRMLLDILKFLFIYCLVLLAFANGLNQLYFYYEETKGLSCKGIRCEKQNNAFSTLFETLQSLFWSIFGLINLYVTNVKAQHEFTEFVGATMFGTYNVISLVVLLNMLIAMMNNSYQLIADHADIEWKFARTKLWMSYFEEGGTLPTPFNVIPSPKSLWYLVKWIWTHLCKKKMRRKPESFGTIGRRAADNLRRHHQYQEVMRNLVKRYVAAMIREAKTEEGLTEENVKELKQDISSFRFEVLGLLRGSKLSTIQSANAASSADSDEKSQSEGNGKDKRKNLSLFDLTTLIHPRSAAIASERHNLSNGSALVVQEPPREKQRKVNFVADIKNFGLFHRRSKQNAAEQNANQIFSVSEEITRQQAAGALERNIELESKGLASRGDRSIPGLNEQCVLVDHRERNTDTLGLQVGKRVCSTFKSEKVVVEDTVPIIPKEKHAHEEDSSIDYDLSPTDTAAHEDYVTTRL

[6] = molecular target: T2, Corticotropin-releasing factor receptor 2/Corticotropin-releasing factor-binding protein (Homo sapiens, UniProt P24387+Q13324); experiment: Dose Response confirmation of uHTS hits for small molecule antagonists of the CRF-binding protein and CRF-R2 receptor complex.; type: functional; details: read-out: IC50_Mean
T2 sequence (Q13324 whole entry): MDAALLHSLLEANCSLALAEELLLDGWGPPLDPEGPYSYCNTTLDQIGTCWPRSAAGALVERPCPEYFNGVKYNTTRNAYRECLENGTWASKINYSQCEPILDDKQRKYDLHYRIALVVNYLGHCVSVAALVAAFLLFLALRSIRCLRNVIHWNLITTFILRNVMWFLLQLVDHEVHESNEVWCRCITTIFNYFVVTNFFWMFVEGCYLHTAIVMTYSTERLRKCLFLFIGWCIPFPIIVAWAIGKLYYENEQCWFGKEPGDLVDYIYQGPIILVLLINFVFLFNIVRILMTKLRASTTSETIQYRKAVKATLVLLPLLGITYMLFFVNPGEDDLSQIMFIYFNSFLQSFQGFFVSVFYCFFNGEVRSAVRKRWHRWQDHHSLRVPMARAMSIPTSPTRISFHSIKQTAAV
T2 sequence (P24387 whole entry): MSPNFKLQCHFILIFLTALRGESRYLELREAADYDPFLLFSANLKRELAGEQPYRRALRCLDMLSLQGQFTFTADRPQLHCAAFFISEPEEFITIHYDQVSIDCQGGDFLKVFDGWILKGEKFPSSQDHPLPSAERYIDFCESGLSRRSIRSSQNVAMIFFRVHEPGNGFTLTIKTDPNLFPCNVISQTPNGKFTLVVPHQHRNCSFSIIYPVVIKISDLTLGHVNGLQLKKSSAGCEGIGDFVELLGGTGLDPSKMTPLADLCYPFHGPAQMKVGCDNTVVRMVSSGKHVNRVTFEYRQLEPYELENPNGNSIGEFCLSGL

[7] = molecular target: T2, Corticotropin-releasing factor receptor 2/Corticotropin-releasing factor-binding protein; experiment: activators of CRF receptor 2 with binding protein – uHTS hits, confirmation (AID 602473); type: functional; details: read-out: EC50_Mean
[8] = blockers of CRF-binding protein–CRF-R2 complex – cell-based, uHTS hits, 384-well, dose response (AID 651639); type: functional, Homo sapiens; details: read-out: IC50_Mean
[9] = system: HEK293; experiment: inhibition of NOD1-driven NF-kB reporter – cell-based, luminescence, uHTS, primary screen (AID 1578); type: functional; details: Homo sapiens
[10] = system: HEK293; experiment: cells; type: functional, cell-based; details: Homo sapiens
[11] = system: HEK293; experiment: cells; type: functional, cell-based; details: Homo sapiens; remark: listed apart in the source
[12] = molecular target: Nucleotide-binding oligomerization domain-containing protein 2 (Homo sapiens, UniProt Q9HC29); experiment: inhibition of NOD2-driven NF-kB reporter – cell-based, luminescence, uHTS, HEK293 (AID 1566); type: functional
Sequence of Nucleotide-binding oligomerization domain-containing protein 2 (Q9HC29 whole entry, the tested form may be a part): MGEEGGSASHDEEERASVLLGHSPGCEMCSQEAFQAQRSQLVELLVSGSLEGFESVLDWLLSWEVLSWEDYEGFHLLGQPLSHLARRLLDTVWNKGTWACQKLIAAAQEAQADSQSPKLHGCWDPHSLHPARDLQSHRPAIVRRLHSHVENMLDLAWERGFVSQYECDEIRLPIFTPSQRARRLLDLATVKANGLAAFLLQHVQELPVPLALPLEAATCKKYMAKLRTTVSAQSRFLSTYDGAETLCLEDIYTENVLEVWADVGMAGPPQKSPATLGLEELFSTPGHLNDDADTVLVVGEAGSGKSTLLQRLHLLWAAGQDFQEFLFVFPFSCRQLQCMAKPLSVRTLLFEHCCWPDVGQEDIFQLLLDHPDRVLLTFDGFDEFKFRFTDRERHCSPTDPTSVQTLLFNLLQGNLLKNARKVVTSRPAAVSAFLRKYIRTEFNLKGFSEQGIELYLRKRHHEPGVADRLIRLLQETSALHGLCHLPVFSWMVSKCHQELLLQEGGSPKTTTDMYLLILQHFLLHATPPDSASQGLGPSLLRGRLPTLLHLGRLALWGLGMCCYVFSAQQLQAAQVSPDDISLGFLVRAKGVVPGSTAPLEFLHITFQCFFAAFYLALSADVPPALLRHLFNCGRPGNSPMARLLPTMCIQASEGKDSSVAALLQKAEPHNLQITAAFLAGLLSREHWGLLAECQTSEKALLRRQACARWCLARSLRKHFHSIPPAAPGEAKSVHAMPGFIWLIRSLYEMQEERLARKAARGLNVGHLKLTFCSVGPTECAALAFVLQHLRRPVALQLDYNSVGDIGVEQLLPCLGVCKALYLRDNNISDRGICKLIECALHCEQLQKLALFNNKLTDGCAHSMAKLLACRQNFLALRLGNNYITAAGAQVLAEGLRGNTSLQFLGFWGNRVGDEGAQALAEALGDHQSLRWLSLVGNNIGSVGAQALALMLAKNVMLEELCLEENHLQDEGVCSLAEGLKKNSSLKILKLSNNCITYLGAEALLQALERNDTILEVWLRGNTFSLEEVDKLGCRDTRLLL

[13] = system: HEK293; experiment: NOD2 signaling inhibitors in MDP-stimulated cells, cell-based, uHTS, luminescence (AID 2001); type: functional; details: Homo sapiens
[14] = system: HEK293; experiment: cells; type: functional, cell-based; details: Homo sapiens; remark: listed apart in the source
[15] = molecular target: T3, Cytochrome P450 1A2 (Homo sapiens, UniProt P05177)
T3 sequence (P05177 whole entry): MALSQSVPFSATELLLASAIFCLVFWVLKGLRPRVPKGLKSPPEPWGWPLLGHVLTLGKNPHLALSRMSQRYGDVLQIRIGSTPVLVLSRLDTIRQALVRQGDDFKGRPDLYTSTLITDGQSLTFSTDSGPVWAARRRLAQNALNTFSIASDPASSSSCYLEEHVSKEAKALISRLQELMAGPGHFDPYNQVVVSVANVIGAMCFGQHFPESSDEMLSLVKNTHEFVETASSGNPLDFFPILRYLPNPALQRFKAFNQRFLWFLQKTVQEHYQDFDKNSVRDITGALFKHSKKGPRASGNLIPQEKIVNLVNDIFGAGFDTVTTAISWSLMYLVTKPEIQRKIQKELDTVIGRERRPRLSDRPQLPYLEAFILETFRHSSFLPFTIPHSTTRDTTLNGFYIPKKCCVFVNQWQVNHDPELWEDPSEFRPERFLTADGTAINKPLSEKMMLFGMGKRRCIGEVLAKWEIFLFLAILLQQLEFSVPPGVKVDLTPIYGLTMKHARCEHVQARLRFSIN

[16] = system: Vero; experiment: viability of Vero cells under compound – cytotoxicity control for flavivirus capping enzyme inhibitors (AID 588742); type: functional; details: Chlorocebus sabaeus

Sequence of Cytochrome P450 2C19 (P33261 whole entry): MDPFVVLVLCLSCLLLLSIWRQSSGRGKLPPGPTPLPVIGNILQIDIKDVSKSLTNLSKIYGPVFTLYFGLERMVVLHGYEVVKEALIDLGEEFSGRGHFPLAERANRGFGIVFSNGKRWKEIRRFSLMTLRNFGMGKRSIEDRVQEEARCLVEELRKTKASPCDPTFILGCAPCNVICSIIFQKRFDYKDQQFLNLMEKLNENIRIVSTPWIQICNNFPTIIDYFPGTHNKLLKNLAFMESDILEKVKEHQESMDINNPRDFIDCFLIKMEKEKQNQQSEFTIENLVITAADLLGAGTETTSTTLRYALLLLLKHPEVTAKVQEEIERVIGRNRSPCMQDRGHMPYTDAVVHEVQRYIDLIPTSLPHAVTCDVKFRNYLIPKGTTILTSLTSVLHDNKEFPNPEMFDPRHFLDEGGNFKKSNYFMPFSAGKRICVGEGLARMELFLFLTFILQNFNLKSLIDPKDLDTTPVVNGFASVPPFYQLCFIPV

AC50 [1]: 25.1 µM (inconclusive)
AC50 [2]: 39.8 µM (inconclusive)
AC50 [3]: inconclusive
Structure (SMILES): Cc1cccc(Oc2coc3cc(OC(=O)c4cc5ccccc5oc4=O)ccc3c2=O)c1

AC50 [3]: inconclusive
Structure (SMILES): O=S(=O)(CC(O)COc1ccccc1Cl)c1ccccc1 (stereo not drawn)

Structure (SMILES): Cc1ccc(OCC(=O)NNC(=S)NC(=O)C2CCCCC2)c(C)c1
AC50 [4]: 39.5 µM (active)

Structure (SMILES): O=C(c1cccc(C(F)(F)F)c1)C1CCCN(Cc2ccccc2O)C1 (stereo not drawn)
EC50 [5]: 2.37 µM (active)

IC50 [6]: 5.69 µM (active)
EC50 [7]: > 53 µM (inactive)
IC50 [8]: > 20 µM (inactive)
Structure (SMILES): Cc1ccc(NC(=O)CSc2nnc(Cn3cnc4ccccc43)o2)c(C)c1

Structure (SMILES): COc1ccc(CNC(=O)c2ccc3ccccc3n2)cc1OC
EC50 [9]: 7.83 µM (active)
IC50 [10]: 14.5 µM (active)
IC50 [11]: > 20 µM (inactive)
EC50 [12]: 11.7 µM (active)
IC50 [13]: > 20 µM (inactive)
IC50 [14]: > 20 µM (inactive)

EC50 [5]: 5.31 µM (active)
Structure (SMILES): Cc1ccccc1CN1CCCC(C(=O)Nc2ccccc2Oc2cccnc2)C1 (stereo not drawn)

AC50 [15]: 2.51 µM (inconclusive)
AC50 [3]: inconclusive
Structure (SMILES): CCCCN(C)C(=O)c1coc(=O)c2ccccc12

AC50 [3]: inconclusive
Structure (SMILES): CN(C)C(=O)c1ccc(-n2nc(C(F)(F)F)c3c2CCCC3)cc1

Structure (SMILES): O=C1c2ccccc2C(=O)c2cc(N3CCCCC3)ccc21
AC50 [4]: 1.3 µM (active)

EC50 [5]: 6.68 µM (active)
Structure (SMILES): O=C1CN=C(Nc2cccc(C(F)(F)F)c2)N1C1CCCC1

Structure (SMILES): COc1ccc(S(=O)(=O)N2CCN(C(S)=NCC3CCCO3)CC2)cc1OC (stereo not drawn)
AC50 [4]: 268 µM (active)

Structure (SMILES): C/C(=N\NC(=O)CNc1cccc2ccccc12)c1ccc(Br)s1
CC50 [16]: > 40 µM (active)

— ChEMBL document CHEMBL1201862, “PubChem BioAssay data set” (2004)
